Test results reported in patent US9814796B2, “Methods for sterilization and/or disinfection” (P[…] OF NEVADA, LLC, priority 2015, dated 2017).
Read-outs that look alike come from different tables or passages of the source.

Columns and labels:
[1] = system: Bacillus atrophaeus ATCC 9372 spores; conditions: 28% hydrogen peroxide, 65° C.
Description: The mixture was then serially ten-fold diluted in saline and spread-plated on tryptic soy agar.

[2] = system: Bacillus atrophaeus ATCC 9372 spores; conditions: conventional usage regime; cited from earlier work
[3] = system: Bacillus atrophaeus ATCC 9372 spores; experiment: Efficacy usage regimes of hydrogen peroxide and peracetic acid as compared to performic acid; assay type: cell-based; conditions: performic acid regime per Table 3
Experimental: For example, temperatures greater than about 55° C. to 65° C. and exposure times greater than about fifteen seconds may be employed in conventional techniques.

Row | Compound | contact time per one logarithm of spore inactivation [1] | Efficacy usage regime: Temperature [2] [°C] | Efficacy usage regime: Time [2] [s] | Efficacy usage regime: Temperature [3] | Efficacy usage regime: Time [3] [s]
1 | OO [Hydrogen Peroxide, hydrogen peroxide] | seven | 65 | 15 to 30 | – | –
2 | CC(=O)OO [Peracetic Acid, peracetic acid] | – | 55 | 15 | – | –
3 | performic acid | – | – | – | Room Temperature | 5
